Test results: article PMC3787718 (Structure (London, England : 1993), 2013)

Molecular target: T1, GLIC (Gloeobacter violaceus ligand-gated ion channel) (Gloeobacter violaceus, UniProt Q7NDN8)
T1 sequence (Q7NDN8 44-359): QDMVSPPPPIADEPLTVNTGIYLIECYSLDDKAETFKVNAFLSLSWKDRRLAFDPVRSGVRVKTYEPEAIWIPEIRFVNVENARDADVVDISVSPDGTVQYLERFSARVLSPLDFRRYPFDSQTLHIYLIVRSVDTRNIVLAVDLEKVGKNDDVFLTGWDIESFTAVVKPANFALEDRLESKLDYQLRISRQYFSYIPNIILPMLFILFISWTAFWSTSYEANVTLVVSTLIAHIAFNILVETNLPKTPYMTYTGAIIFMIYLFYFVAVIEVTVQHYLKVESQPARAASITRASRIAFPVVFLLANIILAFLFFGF
Assay: two-electrode voltage clamp in Xenopus oocytes, inhibition of proton-activated
Format: cell-based

Question: For `FC(F)OC(F)C(F)(F)F` (stereo not shown) [DSF, desflurane], which IC50 is on record?
Answer: The IC50 was 1100 µM.
